Reference: the supplement of paper PMC13380429
Counter-ions that a name gives are not always drawn.

Experiments:
Conditions in all cases: 72 h
[1] = system: Caco-2; assay: cell viability relative to DMSO; higher = less toxic
[2] = system: Calu-3; assay: as above
[3] = system: HepG2; assay: as above
[4] = system: U2OS; assay: as above
[5] = system: Vero E6; assay: as above
[6] = system: Caco-2; assay: relative viability EC50 (midpoint between 100% and the lowest measured viability); higher = less toxic
[7] = system: Calu-3; assay: as above
[8] = system: HepG2; assay: as above
[9] = system: U2OS; assay: as above
[10] = system: Vero E6; assay: as above
[11] = system: Caco-2; assay: drug sensitivity score (DSS) for viability; higher = more toxic; extreme values may be limits of the assay
[12] = system: Calu-3; assay: as above
[13] = system: HepG2; assay: as above
[14] = system: U2OS; assay: as above
[15] = system: Vero E6; assay: as above

Compound | cell viability ([1]; 1 nM) [%] | cell viability ([1]; 10 nM) [%] | cell viability ([1]; 100 nM) [%] | cell viability ([1]; 1000 nM) [%] | cell viability ([1]; 10000 nM) [%] | cell viability ([2]; 1 nM) [%] | cell viability ([2]; 10 nM) [%] | cell viability ([2]; 100 nM) [%] | cell viability ([2]; 1000 nM) [%] | cell viability ([2]; 10000 nM) [%] | cell viability ([3]; 1 nM) [%] | cell viability ([3]; 10 nM) [%] | cell viability ([3]; 100 nM) [%] | cell viability ([3]; 1000 nM) [%] | cell viability ([3]; 10000 nM) [%] | cell viability ([4]; 1 nM) [%] | cell viability ([4]; 10 nM) [%] | cell viability ([4]; 100 nM) [%] | cell viability ([4]; 1000 nM) [%] | cell viability ([4]; 10000 nM) [%] | cell viability ([5]; 1 nM) [%] | cell viability ([5]; 10 nM) [%] | cell viability ([5]; 100 nM) [%] | cell viability ([5]; 1000 nM) [%] | cell viability ([5]; 10000 nM) [%] | relative viability EC50 [6] [µM] | relative viability EC50 [7] [µM] | relative viability EC50 [8] [µM] | relative viability EC50 [9] [µM] | relative viability EC50 [10] [µM] | drug sensitivity score [11] | drug sensitivity score [12] | drug sensitivity score [13] | drug sensitivity score [14] | drug sensitivity score [15]
CC(C)[C@H](C(=O)Nc1ccc(C(=O)NO)cc1)c1ccccc1 [AR-42] | 101 | 95 | 97.6 | 18 | 1.2 | 96.5 | 90.5 | 83 | 36 | 12 | 91.7 | 103 | 75.3 | 18.6 | 0 | 98.9 | 97.3 | 86.5 | 15.4 | 0.3 | 97 | 95.4 | 88.7 | 5.2 | -0.1 | 0.498 | 0.371 | 0.271 | 0.328 | 0.26 | 15.3 | 14.2 | 18 | 17.2 | 18.9
O=C1O[C@H]([C@@H](O)CO)C(O)=C1O [ASCORBIC ACID] | 103 | 95.9 | 100 | 100 | 98.4 | 105 | 95.5 | 110 | 96.3 | 108 | 99.6 | 98.3 | 108 | 93.4 | 101 | 109 | 98.8 | 99.8 | 100 | 102 | 99.7 | 112 | 106 | 103 | 103 | > 10 | > 10 | > 10 | > 10 | > 10 | 0 | 0 | 0 | 0 | 0
O=CN1CCC(C(=O)NCCN2CCC(=C3c4ccccc4C=Cc4ccccc43)CC2)CC1 [AT-1015] | 101 | 108 | 104 | 105 | 93.8 | 93.2 | 103 | 89.2 | 97.7 | 88.7 | 104 | 99.9 | 98.2 | 102 | 77 | 96.3 | 97.4 | 94.8 | 96.8 | 91.4 | 104 | 108 | 110 | 103 | 99.8 | > 10 | > 10 | > 10 | > 10 | > 10 | 0 | 0 | 0.7 | 0 | 0
CNC(=O)c1cccc(-c2ccc3c(N4CCOC[C@@H]4C)nc(N4CCOC[C@@H]4C)nc3n2)c1 [AZD2014] | 106 | 98.5 | 83.8 | 38.8 | 30.6 | 89.4 | 87.5 | 74.3 | 27.7 | 22.9 | 94 | 95.4 | 86.4 | 39 | 22 | 95.8 | 94.9 | 96.7 | 66.7 | 19.4 | 94.7 | 99.4 | 85.4 | 70.1 | 37.2 | 0.235 | 0.154 | 0.348 | 1.2 | 0.762 | 13.3 | 16.1 | 13 | 8.5 | 7.5
COc1cc(CCc2cc(NC(=O)c3ccc(N4CC(C)NC(C)C4)cc3)n[nH]2)cc(OC)c1 (stereo not given) [AZD4547] | 87.5 | 93.8 | 99.3 | 104 | 80.4 | 101 | 107 | 93.8 | 99.4 | 99.8 | 95.7 | 105 | 87.3 | 90.7 | 37 | 101 | 94.8 | 95.2 | 88.2 | 49.5 | 95.7 | 98.1 | 92.5 | 96.2 | 100 | > 10 | > 10 | 1.99 | 1.61 | > 10 | 0.2 | 0 | 5 | 4.5 | 0
CC(C)C[C@@H]1NC(=O)[C@@H](C(C)C)NC(=O)[C@@H]2CCCN2C(=O)[C@@H](CC(=O)O)NC(=O)[C@@H](Cc2c[nH]c3ccccc23)NC1=O [BQ-123] | 96.4 | 93.2 | 103 | 91.4 | 109 | 93.7 | 94.5 | 95.8 | 90.6 | 100 | 95.4 | 100 | 98 | 110 | 108 | 99.7 | 96 | 101 | 95 | 101 | 96.2 | 102 | 92.2 | 99.7 | 104 | > 10 | > 10 | > 10 | > 10 | > 10 | 0 | 0 | 0 | 0 | 0
N[C@H](Cc1ccccc1)C(=O)O [D-phenylalanine] | 94.6 | 101 | 90.8 | 95.8 | 93.8 | 98.3 | 95.2 | 111 | 102 | 105 | 99.7 | 109 | 90.4 | 105 | 100 | 95.6 | 101 | 96.5 | 95.2 | 99.8 | 108 | 100 | 104 | 101 | 96.1 | > 10 | > 10 | > 10 | > 10 | > 10 | 0 | 0 | 0 | 0 | 0
Nc1ncnc2c1ncn2[C@H]1O[C@@H](C(=O)N2CCN(CC(=O)Nc3cccc4c3CNC4=O)CC2)[C@H](O)[C@@H]1O [EB-47] | 97.8 | 103 | 104 | 94.8 | 92.6 | 92 | 102 | 91.3 | 104 | 85.7 | 102 | 96.3 | 103 | 102 | 93.9 | 99.4 | 107 | 102 | 100 | 96.7 | 102 | 98.6 | 94.7 | 92.4 | 97.6 | > 10 | > 10 | > 10 | > 10 | > 10 | 0 | 0.1 | 0 | 0 | 0
CCSC(=N)N [EIT-hydrobromide] | 97.7 | 98.1 | 91.1 | 102 | 107 | 108 | 96.8 | 96.9 | 104 | 103 | 96.9 | 90 | 94.3 | 102 | 103 | 94.2 | 101 | 97.5 | 100 | 103 | 94.2 | 99.4 | 96.9 | 95.8 | 105 | > 10 | > 10 | > 10 | > 10 | > 10 | 0 | 0 | 0 | 0 | 0
CNC(=O)c1cc2c(cn1)[nH]c1ccccc12 [FG-7142] | 97.7 | 104 | 92.2 | 89.8 | 88.2 | 96.9 | 91.8 | 98.2 | 100 | 103 | 101 | 88.4 | 107 | 96.3 | 110 | 98.2 | 100 | 96.9 | 100 | 96.9 | 102 | 95.7 | 98.2 | 100 | 101 | > 10 | > 10 | > 10 | > 10 | > 10 | 0.8 | 0 | 0 | 0 | 0
CC(=O)N1CCC(NC(=O)c2ccc(F)cc2)CC1 [FK-962] | 101 | 97.4 | 104 | 108 | 114 | 108 | 98.7 | 101 | 99.5 | 95.8 | 107 | 104 | 134 | 92.6 | 108 | 97.8 | 97.9 | 98.6 | 103 | 94.4 | 98.1 | 87.7 | 98.3 | 88.5 | 94.3 | > 10 | > 10 | > 10 | > 10 | > 10 | 0 | 0 | 0 | 0 | 0
c1ccc([C@@H]2C[C@H]2NC2CCNCC2)cc1 [GSK-LSD-1] | 98.5 | 95.2 | 96.5 | 87.1 | 92.2 | 102 | 88 | 96.8 | 95.8 | 93.4 | 92.6 | 96.4 | 93 | 98.8 | 97.2 | 102 | 98.1 | 104 | 94.6 | 104 | 97.1 | 99.4 | 96.4 | 101 | 95.6 | > 10 | > 10 | > 10 | > 10 | > 10 | 0 | 0 | 0 | 0 | 0
CC(C)[C@@H](CN1CC[C@@](C)(c2cccc(O)c2)[C@@H](C)C1)NC(=O)[C@H]1Cc2ccc(O)cc2CN1 [JDTic] | 91.9 | 95.2 | 96.7 | 93.3 | 98.5 | 103 | 103 | 95 | 109 | 83.2 | 100 | 95.6 | 99.4 | 101 | 99.6 | 96.7 | 104 | 95.5 | 101 | 102 | 99.4 | 98 | 97.6 | 95.1 | 102 | > 10 | > 10 | > 10 | > 10 | > 10 | 0 | 0.2 | 0 | 0 | 0
COC(=O)[C@@H](N)CCCNC(=N)N[N+](=O)[O-] [L-NAME] | 94.6 | 97.3 | 94.4 | 97.8 | 106 | 96 | 106 | 99.6 | 94.7 | 114 | 97.4 | 104 | 94.5 | 95.4 | 116 | 101 | 97.9 | 103 | 101 | 110 | 97.7 | 96.6 | 99.9 | 98.6 | 105 | > 10 | > 10 | > 10 | > 10 | > 10 | 0 | 0 | 0 | 0 | 0
